The results in this text go back to ChEMBL document CHEMBL5236587, “Discovery of oxazoline enhancers of cellular progranulin release” (Bioorg Med Chem Lett, 2023).

Data set [1] can be described thus: Metabolic stability in mouse hepatocytes assessed as half life measured upto 120 mins. It counts as ADME, cell-based, Hepatocyte.
The nature of data set [2]: Induction of progranulin secretion in mouse BV-2 cells. It counts as functional, cell-based.
Data set [3] can be described thus: Bioavailability in mouse at 10 mg/kg, po or 1 mg/kg, iv. In kind it is ADME, organism-based. The conditions noted are these: in vivo.
A short description of data set [4]: Metabolic stability in human hepatocytes assessed as intrinsic clearance. It counts as ADME, cell-based, Hepatocyte.
Data set [5] is described as follows: Protein binding in mouse brain assessed as unbound fraction. In kind it is ADME, tissue-based.
A short description of data set [6]: Half life in mouse at 1 mg/kg, iv. In kind it is ADME, organism-based. The conditions noted are these: in vivo.
A short description of data set [7]: Apparent permeability across apical to basolateral side in MDCK-MDR1 cells. To be noted: dog. In kind it is ADME, cell-based, Canis lupus familiaris.
In data set [8] the target is Voltage-gated inwardly rectifying potassium channel KCNH2 (Homo sapiens, UniProt Q12809). As to the kind of experiment: Inhibition of human ERG. In kind it is toxicity.
Voltage-gated inwardly rectifying potassium channel KCNH2, sequence (Q12809 whole entry): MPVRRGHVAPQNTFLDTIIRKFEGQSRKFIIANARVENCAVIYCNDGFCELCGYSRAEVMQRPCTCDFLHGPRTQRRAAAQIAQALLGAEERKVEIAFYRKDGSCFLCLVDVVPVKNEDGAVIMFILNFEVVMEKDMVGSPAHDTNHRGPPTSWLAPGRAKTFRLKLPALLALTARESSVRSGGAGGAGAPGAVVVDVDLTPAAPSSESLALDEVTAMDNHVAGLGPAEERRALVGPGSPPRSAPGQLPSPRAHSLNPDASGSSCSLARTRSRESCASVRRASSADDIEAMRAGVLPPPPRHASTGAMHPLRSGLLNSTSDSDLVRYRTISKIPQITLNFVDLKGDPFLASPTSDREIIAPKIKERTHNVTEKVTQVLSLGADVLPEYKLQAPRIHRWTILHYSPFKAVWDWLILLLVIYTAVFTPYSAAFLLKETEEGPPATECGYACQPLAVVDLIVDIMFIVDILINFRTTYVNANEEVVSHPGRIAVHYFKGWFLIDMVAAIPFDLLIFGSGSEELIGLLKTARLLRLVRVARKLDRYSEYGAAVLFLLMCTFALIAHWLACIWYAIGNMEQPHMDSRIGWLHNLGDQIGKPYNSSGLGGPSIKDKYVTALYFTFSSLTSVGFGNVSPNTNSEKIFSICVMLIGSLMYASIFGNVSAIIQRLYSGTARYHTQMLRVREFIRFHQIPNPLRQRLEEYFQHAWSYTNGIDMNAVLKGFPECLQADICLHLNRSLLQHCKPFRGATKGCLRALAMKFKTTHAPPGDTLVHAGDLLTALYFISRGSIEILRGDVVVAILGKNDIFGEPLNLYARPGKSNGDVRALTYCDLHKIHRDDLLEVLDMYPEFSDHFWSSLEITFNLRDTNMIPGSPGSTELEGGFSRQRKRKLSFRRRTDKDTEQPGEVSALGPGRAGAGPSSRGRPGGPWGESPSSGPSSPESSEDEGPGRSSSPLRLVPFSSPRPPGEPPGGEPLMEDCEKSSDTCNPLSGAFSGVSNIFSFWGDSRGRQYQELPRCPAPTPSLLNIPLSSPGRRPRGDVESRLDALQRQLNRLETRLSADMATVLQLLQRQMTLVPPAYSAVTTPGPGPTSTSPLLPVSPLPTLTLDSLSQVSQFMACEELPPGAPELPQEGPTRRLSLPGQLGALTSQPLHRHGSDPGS
Data set [9] is described as follows: Half life in mouse at 10 mg/kg, po. To be noted: in vivo. In kind it is ADME, organism-based.
The nature of data set [10]: Volume of distribution at steady state in mouse at 10 mg/kg, po or 1 mg/kg, iv. To be noted: in vivo. In kind it is ADME, organism-based.
The nature of data set [11]: Efflux ratio of apparent permeability in MDCK-MDR1 cells. It counts as ADME, cell-based, Canis lupus familiaris. The conditions noted are these: dog.
A short description of data set [12]: Metabolic stability in human hepatocytes assessed as half life measured upto 120 mins. It counts as ADME, cell-based, Hepatocyte.
Data set [13] in a line: Clearance in mouse at 10 mg/kg, po or 1 mg/kg, iv. In kind it is ADME, organism-based. The conditions noted are these: in vivo.
A short description of data set [14]: Metabolic stability in mouse hepatocytes assessed as intrinsic clearance. In kind it is ADME, cell-based, Hepatocyte.
Data set [15] is described as follows: Unbound Cmax in mouse at 10 mg/kg, po or 1 mg/kg, iv. In kind it is ADME, organism-based. The conditions noted are these: in vivo.
Data set [16] is described as follows: Protein binding in mouse assessed as unbound fraction. It counts as ADME.
Data set [17] is described as follows: Protein binding in human assessed as unbound fraction. It counts as ADME.
Data set [18] in a line: Unbound brain to plasma partition coefficient in mouse at 10 mg/kg, po or 1 mg/kg, iv after 8 hrs. In kind it is ADME, organism-based. The conditions noted are these: read-out: K(p,uu,brain).
Data set [19] has as its target Muscarinic acetylcholine receptor M3 (Homo sapiens, UniProt P20309). In words: Antagonist activity at M3 receptor (unknown origin).

Muscarinic acetylcholine receptor M3, sequence (P20309 whole entry): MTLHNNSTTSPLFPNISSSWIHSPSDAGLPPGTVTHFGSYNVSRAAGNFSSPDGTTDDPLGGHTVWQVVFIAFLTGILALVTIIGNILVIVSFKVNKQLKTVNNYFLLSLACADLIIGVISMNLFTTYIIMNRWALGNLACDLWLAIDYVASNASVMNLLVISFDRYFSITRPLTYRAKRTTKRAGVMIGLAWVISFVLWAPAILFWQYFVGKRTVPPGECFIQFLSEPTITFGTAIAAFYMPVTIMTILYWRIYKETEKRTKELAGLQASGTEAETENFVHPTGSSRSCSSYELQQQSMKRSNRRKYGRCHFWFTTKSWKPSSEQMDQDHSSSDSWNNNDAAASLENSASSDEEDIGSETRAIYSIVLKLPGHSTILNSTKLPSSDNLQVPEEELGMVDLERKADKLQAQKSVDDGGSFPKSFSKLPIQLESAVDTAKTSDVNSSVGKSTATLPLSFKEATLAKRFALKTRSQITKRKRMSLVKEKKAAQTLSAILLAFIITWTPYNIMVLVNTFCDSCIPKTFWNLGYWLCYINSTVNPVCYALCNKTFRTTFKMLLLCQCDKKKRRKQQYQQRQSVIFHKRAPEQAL

On to `Fc1ccc([C@H]2c3ccccc3CCN2C2=NC[C@@]3(CCNC3)O2)cc1`, for which the half-life is greater than 2 h in data set [1], 15.6 h in [6], 11.9 h in [9] and greater than 2 h in [12]. In data set [2], this compound gave an EC50 of 38 nM. The same compound returned a bioavailability in [3] of 74%. The CLH was less than 14.7 µL/min/mg in data set [4] and less than 68.2 µL/min/mg in data set [14]. For the same compound, in data set [5], the fraction unbound stood at 0.041. Further, the Papp A→B in [7] turned out to be 3 ×10⁻⁶ cm/s. For the same compound, in data set [8], half-maximal inhibition (IC50) was put at 4800 nM. In data set [10], the Vdss came out at 57.2 L/kg. In addition, in data set [11], the efflux ratio turned out to be 3.09. Also, in [13], the CL was 49.8 mL/min/kg.

In data set [15], `OCCN1CC[C@@]2(CN=C(N3CCc4ccccc4[C@@H]3c3ccc(F)cc3)O2)C1` yielded a fCmax of 8 nM. In addition, the half-life in [1] was 0.517 h; in data set [6], 2.1 h; in data set [9] it was 3.3 h; in [12], greater than 2 h. Further, the response in [2] was half-maximal at 318 nM (EC50). The compound further gave a bioavailability in data set [3] of 6.1%. In addition, the fraction unbound in data set [16] stood at 0.091; in data set [5] it was 0.042; in data set [17] it was 0.151. The CLH in data set [4] was less than 14.7 µL/min/mg; in data set [14], 22.25 µL/min/mg. For the same compound, in data set [7], the Papp A→B was 2.2 ×10⁻⁶ cm/s. The IC50 in data set [8] was determined as 4400 nM. In addition, the Vdss in [10] is 18.5 L/kg. For the same compound, in [11], the efflux ratio was determined as 1.52. The Kp uu at 8 h in data set [18] amounted to 3.84. The CL in [13] came to 129 mL/min/kg.

Consider `O=C(O[C@H]1CN2CCC1CC2)N1CCc2ccccc2[C@@H]1c1ccc(F)cc1`, for which the EC50 came out at 17000 nM in data set [19] and 257 nM in [2]. In addition, the IC50 in data set [8] came out at 340 nM.

Turning to `Fc1ccc([C@H]2c3ccccc3CCN2C2=NC[C@@H](C3(F)CNC3)O2)cc1`, in data set [15], the fCmax is 11 nM. Further, the half-life in [1] was greater than 2 h; in [6] it was 2.2 h; in [9], 2.6 h; in data set [12], greater than 2 h. Further, the EC50 in [2] was determined as 132 nM. In addition, the bioavailability in data set [3] was found to be 38%. Also, the results for the fraction unbound in data set [16], in [5] and in data set [17] were 0.021, 0.01 and 0.068, respectively. In addition, the CLH in [4] is less than 14.7 µL/min/mg; in [14], less than 68.2 µL/min/mg. Moreover, the Papp A→B in data set [7] came out at 0.87 ×10⁻⁶ cm/s. The compound also returned an IC50 in [8] of 3600 nM. The compound also gave a Vdss in data set [10] of 12.2 L/kg. Besides, in data set [11], the efflux ratio was determined as 1.07. In data set [18], the Kp uu at 8 h is 8.33. The CL in data set [13] was 89.3 mL/min/kg.

In turn, `Fc1ccc([C@H]2c3ccccc3CCN2C2=N[C@H](C3(F)CNC3)CO2)cc1` gave a fCmax in data set [15] of 62 nM. The half-life in data set [1] is greater than 2 h; in [6], 7.4 h; in data set [9] it was 4.8 h; in [12], greater than 2 h. For the same compound, in [2], the midpoint of the response, the EC50, lay at 83 nM. Moreover, in data set [3], the bioavailability is 99%. Further, the fraction unbound in [16] amounted to 0.031; in [5], 0.009; in [17], 0.055. Moreover, the results for the CLH in data set [4] and in data set [14] were less than 14.7 µL/min/mg and less than 68.2 µL/min/mg, respectively. Moreover, in data set [7], the Papp A→B came to 0.53 ×10⁻⁶ cm/s. In addition, the IC50 in data set [8] is 3100 nM. In addition, in [10], the Vdss was found to be 15.2 L/kg. In data set [11], the efflux ratio was 1.11. For the same compound, in data set [18], the Kp uu at 8 h stood at 2.91. Moreover, the CL in [13] stood at 34.7 mL/min/kg.

`Fc1ccc([C@H]2c3ccccc3CCN2C2=NC[C@@H]3CNCC[C@@H]3O2)cc1` yielded an EC50 in data set [2] of 57 nM. In addition, the fraction unbound in data set [16] amounted to 0.253; in data set [5], 0.009; in data set [17] it was 0.375. For the same compound, the Papp A→B in data set [7] was 1.4 ×10⁻⁶ cm/s. For the same compound, in data set [8], 21000 nM corresponded to half-maximal inhibition (IC50). Moreover, the efflux ratio in data set [11] came to 9.04.

With `Fc1ccc([C@H]2c3ccccc3CCN2C2=NC[C@@H](C3CN4CCC3CC4)O2)cc1` (stereo partly drawn), the fCmax in [15] worked out at 6 nM. In addition, the half-life in data set [1] was 0.0785 h; in data set [6], 4.17 h; in data set [9], 11.4 h; in data set [12] it was 0.242 h. The response in [2] was half-maximal at 218 nM (EC50). Further, the bioavailability in [3] is 25%. Further, the fraction unbound in [16] is 0.056; in data set [5], 0.02; in data set [17], 0.141. The CLH in data set [4] is 47.79 µL/min/mg; in data set [14], 147.03 µL/min/mg. Besides, in data set [7], the Papp A→B came to 3.07 ×10⁻⁶ cm/s. Also, the IC50 in [8] worked out at 690 nM. In [10], this compound showed a Vdss of 38.8 L/kg. Moreover, the efflux ratio in data set [11] was 2.12. For the same compound, the Kp uu at 8 h in [18] stood at 2.7. Also, in [13], the CL was 156 mL/min/kg.

With `O=C(O[C@H]1CN2CCC1CC2)N1CCc2ccccc2[C@@H]1c1ccccc1` [SOLIFENACIN], the EC50 is 24 nM in data set [19] and 1300 nM in data set [2].

A word on the half-life: it is the time in which the quantity being followed falls by half. Broadly, the EC50 is the concentration giving half of the maximal effect. In general, bioavailability refers to the share of a dose that reaches the circulation, judged against a reference dose that is usually intravenous. Low readings indicate little systemic uptake, high ones much systemic uptake. As a reminder, the fraction unbound is free concentration divided by total concentration. The Papp A→B is how fast a substance crosses the layer from the apical side. As usually defined, the IC50 is the concentration that gives 50% inhibition. A word on the efflux ratio: it is the permeability from basolateral to apical divided by that in the opposite direction, in the common usage.
